According to patent US10370387B2, “Tricyclic fused thiophene derivatives as JAK inhibitors” (Incyte Corporation, priority 2012, dated 2019):

tested on: human JAK1; assay: In vitro JAK kinase assay (HTRF, phosphorylation of biotinylated peptide), JAK1; type: biochemical; conditions: ratio of JAK2 IC50 to JAK1 IC50, 1 mM ATP
Outline: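 Baculovirus-expressed catalytic domains (JAK1 a.a. 837-1142, JAK2 a.a. 828-1132) phosphorylate 500 nM biotinylated peptide at 1 mM ATP, Tris pH 7.8, 1 h at room temperature. EDTA stop and HTRF detection with Eu-Py20/SA-APC; IC50 values derived.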

Compound	JAK2/JAK1
((1R,2S,4S)-2-Hydroxy-4-{2-[(1R)-1-hydroxyethyl]-1H-imidazo[4,5-d]thieno[3,2-b]pyridin-1-yl}cyclohexyl)acetonitrile trifluoacetate and ((1S,2R,4R)-2-hydroxy-4-{2-[(1R)-1-hydroxyethyl]-1H-imidazo[4,5-d]thieno[3,2-b]pyridin-1-yl}cyclohexyl)acetonitrile trifluoacetate [37 (second peak)]	>10
((1R,2R,4S)-2-Hydroxy-4-{2-[(1R)-1-hydroxyethyl]-1H-imidazo[4,5-d]thieno[3,2-b]pyridin-1-yl}cyclohexyl)acetonitrile and ((1S,2S,4R)-2-hydroxy-4-{2-[(1R)-1-hydroxyethyl]-1H-imidazo[4,5-d]thieno[3,2-b]pyridin-1-yl}cyclohexyl)acetonitrile [36 (second peak)]	>10
C[C@@H](O)c1nc2cnc3ccsc3c2n1C1CCN(CCC#N)CC1 [Example 16, 3-(4-{2-[(1R)-1-Hydroxyethyl]-1H-imidazo[4,5-d]thieno[3,2-b]pyridin-1-yl}piperidin-1-yl)propanenitrile]	>10
C[C@@H](O)c1nc2cnc3ccsc3c2n1C1CCC(O)(CC#N)CC1 (single isomer, unassigned) [24 (second peak)]	>10
C[C@@H](O)c1nc2cnc3ccsc3c2n1[C@H]1CC[C@H](NCC(F)(F)F)CC1 [Example 4, (1R)-1-(1-{trans-4-[(2,2,2-Trifluoroethyl)amino]cyclohexyl}-1H-imidazo[4,5-d]thieno[3,2-b]pyridin-2-yl)ethanol]	>10
CC(C)OC(=O)NC[C@H]1CC[C@H](n2c([C@@H](C)O)nc3cnc4ccsc4c32)CO1 [Example 76, Isopropyl [((2R,5S)-5-{2-[(1R)-1-hydroxyethyl]-1H-imidazo[4,5-d]thieno[3,2-b]pyridin-1-yl}tetrahydro-2H-pyran-2-yl)methyl]carbamate]	>10
C[C@@H](O)c1nc2cnc3ccsc3c2n1[C@H]1CC[C@@H](CC#N)OC1 [Example 21, ((2S,5S)-5-{2-[(1R)-1-Hydroxyethyl]-1H-imidazo[4,5-d]thieno[3,2-b]pyridin-1-yl}tetrahydro-2H-pyran-2-yl)acetonitrile]	>10
((1R,2S,4S)-2-Hydroxy-4-{2-[(1R)-1-hydroxyethyl]-1H-imidazo[4,5-d]thieno[3,2-b]pyridin-1-yl}cyclohexyl)acetonitrile trifluoacetate and ((1S,2R,4R)-2-hydroxy-4-{2-[(1R)-1-hydroxyethyl]-1H-imidazo[4,5-d]thieno[3,2-b]pyridin-1-yl}cyclohexyl)acetonitrile trifluoacetate [37 (first peak)]	>10
C[C@@H](O)c1nc2cnc3ccsc3c2n1[C@H]1CC[C@H](CO)CC1 [Example 11, (1R)-1-{1-[trans-4-(Hydroxymethyl)cyclohexyl]-1H-imidazo[4,5-d]thieno[3,2-b]pyridin-2-yl}ethanol]	>10
N#CC[C@H]1CC[C@H](n2c(C3CC3)nc3cnc4ccsc4c32)CO1 [Example 43, [(2R,5S)-5-(2-Cyclopropyl-1H-imidazo[4,5-d]thieno[3,2-b]pyridin-1-yl)tetrahydro-2H-pyran-2-yl]acetonitrile]	>10
C[C@@H](O)c1nc2cnc3ccsc3c2n1[C@H]1CC[C@H](CNS(C)(=O)=O)OC1 [Example 75, N-[((2R,5S)-5-{2-[(1R)-1-Hydroxyethyl]-1H-imidazo[4,5-d]thieno[3,2-b]pyridin-1-yl}tetrahydro-2H-pyran-2-yl)methyl]methanesulfonamide]	>10
C[C@H](O)c1nc2cnc3ccsc3c2n1[C@H]1CC[C@H](CC#N)OC1 [Example 45, ((2R,5S)-5-{2-[(1S)-1-Hydroxyethyl]-1H-imidazo[4,5-d]thieno[3,2-b]pyridin-1-yl}tetrahydro-2H-pyran-2-yl)acetonitrile]	>10
C[C@@H](O)c1cc2cnc3ccsc3c2n1[C@H]1CC[C@H](CC#N)CC1 [Example 23, (trans-4-{7-[(1R)-1-Hydroxyethyl]-8H-pyrrolo[2,3-d]thieno[3,2-b]pyridin-8-yl}cyclohexyl)acetonitrile]	>10
CC(C)c1nc2cnc3ccsc3c2n1[C@H]1CC[C@H](CC#N)OC1 [Example 42, [(2R,5S)-5-(2-Isopropyl-1H-imidazo[4,5-d]thieno[3,2-b]pyridin-1-yl)tetrahydro-2H-pyran-2-yl]acetonitrile]	>10
CC(=O)NC(C)c1nc2cnc3ccsc3c2n1[C@H]1CC[C@H](CC#N)OC1 (stereo partly drawn) [Example 69, N-(1-{1-[(3S,6R)-6-(Cyanomethyl)tetrahydro-2H-pyran-3-yl]-1H-imidazo[4,5-d]thieno[3,2-b]pyridin-2-yl}ethyl) acetamide]	>10
C[C@@H](O)c1nc2cnc3ccsc3c2n1[C@H]1CC[C@H](CC#N)CC1.Cl [Example 10, (trans-4-{2-[(1R)-1-Hydroxyethyl]-1H-imidazo[4,5-d]thieno[3,2-b]pyridin-1-yl}cyclohexyl)acetonitrile HCl salt]	>10
N#CC[C@H]1CC[C@H](n2c(C3CC3)nc3cnc4ccsc4c32)CC1 [Example 26, [trans-4-(2-Cyclopropyl-1H-imidazo[4,5-d]thieno[3,2-b]pyridin-1-yl)cyclohexyl]acetonitrile]	>10

Compound	JAK2/JAK1
C[C@@H](O)c1nc2cnc3ccsc3c2n1[C@H]1CC[C@H](CC#N)[C@H](N)C1 [Example 67, ((1R,2R,4S)-2-Amino-4-{2-[(1R)-1-hydroxyethyl]-1H-imidazo[4,5-d]thieno[3,2-b]pyridin-1-yl}cyclohexyl)acetonitrile]	>10
Cc1nc2cnc3ccsc3n2c1-c1ccc(CC#N)cc1 [Example 33, [4-(7-Methylimidazo[1,2-a]thieno[3,2-e]pyrazin-8-yl)phenyl]acetonitrile]	>7
C[C@@H](O)c1nc2cnc3ccsc3c2n1C1CCC(NCCC#N)CC1 (single isomer, unassigned) [30 (first peak)]	>2
C[C@@H](O)c1nc2cnc3ccsc3c2n1[C@H]1CC[C@H](CNC(=O)N(C)C)CC1 [Example 81, N′-[(trans-4-{2-[(1R)-1-Hydroxyethyl]-1H-imidazo[4,5-d]thieno[3,2-b]pyridin-1-yl}cyclohexyl)methyl]-N,N-dimethylurea]	>10
C[C@@H](O)c1nc2cnc3ccsc3c2n1[C@H]1CC[C@@H](n2cncn2)CC1 [Example 6, (1R)-1-{1-[cis-4-(1H-1,2,4-Triazol-1-yl)cyclohexyl]-1H-imidazo[4,5-d]thieno[3,2-b]pyridin-2-yl}ethanol]	>6
C[C@@H](O)c1nc2cnc3ccsc3c2n1[C@H]1CCN(CCC#N)C1 [Example 62, 3-((3S)-3-{2-[(1R)-1-Hydroxyethyl]-1H-imidazo[4,5-d]thieno[3,2-b]pyridin-1-yl}pyrrolidin-1-yl)propanenitrile]	>10
CCOC(=O)NC[C@H]1CC[C@H](n2c([C@@H](C)O)nc3cnc4ccsc4c32)CC1 [Example 82, Ethyl [(trans-4-{2-[(1R)-1-hydroxyethyl]-1H-imidazo[4,5-d]thieno[3,2-b]pyridin-1-yl}cyclohexyl)methyl]carbamate]	>10
C[C@@H](O)c1nc2cnc3ccsc3c2n1[C@H]1CCN(C(=O)CC#N)C1 [Example 63, 3-((3S)-3-{2-[(1R)-1-Hydroxyethyl]-1H-imidazo[4,5-d]thieno[3,2-b]pyridin-1-yl}pyrrolidin-1-yl)-3-oxopropanenitrile]	>6
[(1R,2S,4S)-4-(2-Ethyl-1H-imidazo[4,5-d]thieno[3,2-b]pyridin-1-yl)-2-hydroxycyclohexyl]acetonitrile and [(1S,2R,4R)-4-(2-ethyl-1H-imidazo[4,5-d]thieno[3,2-b]pyridin-1-yl)-2-hydroxycyclohexyl]acetonitrile [40 (first peak)]	>10
C[C@@H](O)c1nc2cnc3ccsc3c2n1[C@H]1CC[C@H](CC#N)CC1 [Example 2, (trans-4-{2-[(1R)-1-Hydroxyethyl]-1H-imidazo[4,5-d]thieno[3,2-b]pyridin-1-yl}cyclohexyl)acetonitrile]	>10
C[C@@H](O)c1nc2cnc3ccsc3c2n1[C@H]1CC[C@H](CC#N)OC1 [Example 20, ((2R,5S)-5-{2-[(1R)-1-Hydroxyethyl]-1H-imidazo[4,5-d]thieno[3,2-b]pyridin-1-yl}tetrahydro-2H-pyran-2-yl)acetonitrile]	>10
CC(C)OC(=O)NC[C@H]1CC[C@H](n2c(CC#N)nc3cnc4ccsc4c32)CC1 [Example 88, Isopropyl ({trans-4-[2-(cyanomethyl)-1H-imidazo[4,5-d]thieno[3,2-b]pyridin-1-yl]cyclohexyl}methyl)carbamate]	>10
CCOC(=O)NC[C@H]1CC[C@H](n2c(CC#N)nc3cnc4ccsc4c32)CC1 [Example 87, Ethyl ({trans-4-[2-(cyanomethyl)-1H-imidazo[4,5-d]thieno[3,2-b]pyridin-1-yl]cyclohexyl}methyl)carbamate]	>10
CCc1nc2cnc3ccsc3c2n1[C@H]1CC[C@H](CC#N)CC1 [Example 47, [trans-4-(2-Ethyl-1H-imidazo[4,5-d]thieno[3,2-b]pyridin-1-yl)cyclohexyl]acetonitrile]	>10
CC(N)c1nc2cnc3ccsc3c2n1[C@H]1CC[C@H](CC#N)OC1.O=C(O)C(F)(F)F (stereo partly drawn) [Example 68, {(2R,5S)-5-[2-(1-Aminoethyl)-1H-imidazo[4,5-d]thieno[3,2-b]pyridin-1-yl]tetrahydro-2H-pyran-2-yl}acetonitrile trifluoroacetate]	>10
CC(=O)NC[C@H]1CC[C@H](n2c([C@@H](C)O)nc3cnc4ccsc4c32)CC1 [Example 79, N-[(trans-4-{2-[(1R)-1-Hydroxyethyl]-1H-imidazo[4,5-d]thieno[3,2-b]pyridin-1-yl}cyclohexyl)methyl]acetamide]	>10
